Results reported in ChEMBL document CHEMBL5584293, “Discovery and evaluation of novel spiroheterocyclic protective agents via a SIRT1 upregulation mechanism in cisplatin-induced premature ovarian failure” (Bioorg Med Chem, 2024).
Calls of active or inactive are those of the source. No cut-off for these calls is given here.

Assays:
KGN = assay: Protective effect against cisplatin-induced injury in human KGN cells assessed as cell survival at 5 uM incubated for 48 hrs by MTT assay; format: functional, cell-based
NRK = assay: Cytotoxicity against rat NRK cells assessed as cell viability at 50 uM incubated for 48 hrs by MTT assay; format: toxicity, cell-based
[1] = Cytotoxicity against human PDL cells assessed as cell viability at 50 uM incubated for 48 hrs by MTT assay; format: toxicity, cell-based
[2] = Cytotoxicity against human MIHA cells assessed as cell viability at 50 uM incubated for 48 hrs by MTT assay; format: toxicity, cell-based

SMILES	Activity (KGN)	also measured
CC1N[C@@]2(C(=O)c3cccc4cccc2c34)[C@@]2(CCC/C(=C\c3cc(F)cc(F)c3)C2=O)[C@H]1c1cc(F)cc(F)c1 (stereo partly specified)	inactive	–
CC(O)C1N[C@@]2(C(=O)c3cccc4cccc2c34)[C@@]2(CCC/C(=C\c3ccccc3)C2=O)[C@H]1c1ccccc1 (stereo partly specified)	Active	–
CC1N[C@@]2(C(=O)c3cccc4cccc2c34)[C@@]2(CCC/C(=C\c3ccc(Br)o3)C2=O)[C@H]1c1ccc(Br)o1 (stereo partly specified)	Active	–
CN1C[C@H](c2ccccc2)[C@]2(CN(C(=O)OC(C)(C)C)C/C(=C\c3ccccc3)C2=O)[C@]12C(=O)Nc1ccc(Cl)cc12	–	Activity (NRK): Non-Toxic; Activity [1]: Non-Toxic; Activity [2]: Non-Toxic
COc1ccc(/C=C2\CCC[C@@]3(C2=O)[C@@H](c2ccc(OC)c(O)c2)C(C)N[C@@]32C(=O)c3cccc4cccc2c34)cc1O (stereo partly specified)	inactive	–
CC1N[C@@]2(C(=O)c3cccc4cccc2c34)[C@@]2(CCC/C(=C\c3ccc(Cl)c(Br)c3)C2=O)[C@H]1c1ccc(Cl)c(Br)c1 (stereo partly specified)	inactive	–
CN1C[C@H](c2ccccc2)[C@H](C(=O)/C=C/c2ccccc2)[C@]12C(=O)Nc1ccc(Cl)cc12	–	Activity (NRK): Toxic; Activity [1]: Toxic; Activity [2]: Toxic
O=C(O)CCC1N[C@@]2(C(=O)c3cccc4cccc2c34)[C@@]2(CCC/C(=C\c3ccccc3)C2=O)[C@H]1c1ccccc1 (stereo partly specified)	inactive	–
CCOc1ccc(/C=C2\CCC[C@@]3(C2=O)[C@@H](c2ccc(OCC)cc2)C(C)N[C@@]32C(=O)c3cccc4cccc2c34)cc1 (stereo partly specified)	inactive	–
CC1N[C@@]2(C(=O)c3cccc4cccc2c34)[C@@]2(CCC/C(=C\c3cc(Br)cs3)C2=O)[C@H]1c1cc(Br)cs1 (stereo partly specified)	Active	–
CCOc1ccc(/C=C2\CCC[C@@]3(C2=O)[C@@H](c2ccc(OCC)c(OCC)c2)C(C)N[C@@]32C(=O)c3cccc4cccc2c34)cc1OCC (stereo partly specified)	inactive	–
CC1N[C@@]2(C(=O)c3cccc4cccc2c34)[C@@]2(CCC/C(=C\c3ccccc3Br)C2=O)[C@H]1c1ccccc1Br (stereo partly specified)	Active	–
CN1C[C@H](c2ccccc2)[C@]2(CN(C(=O)OC(C)(C)C)C/C(=C\c3ccccc3)C2=O)[C@]12C(=O)Nc1ccc(F)cc12	–	Activity (NRK): Non-Toxic; Activity [1]: Non-Toxic; Activity [2]: Non-Toxic
O=C1c2cccc3cccc(c23)[C@]12NC(Cc1c[nH]cn1)[C@H](c1ccccc1)[C@]21CCC/C(=C\c2ccccc2)C1=O (stereo partly specified)	inactive	–
CC1N[C@@]2(C(=O)c3cccc4cccc2c34)[C@@]2(CCC/C(=C\c3ccc(Cl)cc3Cl)C2=O)[C@H]1c1ccc(Cl)cc1Cl (stereo partly specified)	inactive	–
O=C1c2cccc3cccc(c23)[C@]12NC(CO)[C@H](c1ccccc1)[C@]21CCC/C(=C\c2ccccc2)C1=O (stereo partly specified)	Active	–
CN1C[C@H](c2ccccc2)C2(CN(C(=O)OC(C)(C)C)C/C(=C\c3ccccc3)C2=O)[C@]12C(=O)c1cccc3cccc2c13 (single isomer, unassigned)	–	Activity (NRK): Non-Toxic; Activity [1]: Non-Toxic; Activity [2]: Non-Toxic
CC1N[C@@]2(C(=O)c3cccc4cccc2c34)[C@@]2(CCC/C(=C\c3ccc(O)c(O)c3)C2=O)[C@H]1c1ccc(O)c(O)c1 (stereo partly specified)	inactive	–
CC1N[C@@]2(C(=O)c3cccc4cccc2c34)[C@@]2(CCC/C(=C\c3ccc(Cl)cc3)C2=O)[C@H]1c1ccc(Cl)cc1 (stereo partly specified)	Active	–
CC1N[C@@]2(C(=O)c3cccc4cccc2c34)[C@@]2(CCC/C(=C\c3ccc(Br)cc3)C2=O)[C@H]1c1ccc(Br)cc1 (stereo partly specified)	Active	–
Cc1ccc(/C=C2\CCC[C@@]3(C2=O)[C@@H](c2ccc(C)s2)C(C)N[C@@]32C(=O)c3cccc4cccc2c34)s1 (stereo partly specified)	Active	–
CC1N[C@@]2(C(=O)c3cccc4cccc2c34)[C@@]2(CCC/C(=C\c3ccccc3C(F)(F)F)C2=O)[C@H]1c1ccccc1C(F)(F)F (stereo partly specified)	inactive	–

SMILES	Activity (KGN)	also measured
COc1ccccc1/C=C1\CCC[C@@]2(C1=O)[C@@H](c1ccccc1OC)C(C)N[C@@]21C(=O)c2cccc3cccc1c23 (stereo partly specified)	inactive	–
COc1ccc(/C=C2\CCC[C@@]3(C2=O)[C@@H](c2ccc(OC)cc2OC)C(C)N[C@@]32C(=O)c3cccc4cccc2c34)c(OC)c1 (stereo partly specified)	inactive	–
O=C1c2cccc3cccc(c23)[C@]12NC(Cc1c[nH]c3ccccc13)[C@H](c1ccccc1)[C@]21CCC/C(=C\c2ccccc2)C1=O (stereo partly specified)	Active	–
CSCCC1N[C@@]2(C(=O)c3cccc4cccc2c34)[C@@]2(CCC/C(=C\c3ccccc3)C2=O)[C@H]1c1ccccc1 (stereo partly specified)	inactive	–
CC(C)CC1N[C@@]2(C(=O)c3cccc4cccc2c34)[C@@]2(CCC/C(=C\c3ccccc3)C2=O)[C@H]1c1ccccc1 (stereo partly specified)	inactive	–
N=C(N)NCCCC1N[C@@]2(C(=O)c3cccc4cccc2c34)[C@@]2(CCC/C(=C\c3ccccc3)C2=O)[C@H]1c1ccccc1 (stereo partly specified)	inactive	–
CC1N[C@@]2(C(=O)c3cccc4cccc2c34)[C@@]2(CCC/C(=C\N3CCOCC3)C2=O)[C@H]1N1CCOCC1 (stereo partly specified)	Active	–
CC(C)C1N[C@@]2(C(=O)c3cccc4cccc2c34)[C@@]2(CCC/C(=C\c3ccccc3)C2=O)[C@H]1c1ccccc1 (stereo partly specified)	inactive	–
O=C1c2cccc3cccc(c23)[C@]12N1CCC(O)C1[C@H](c1ccccc1)[C@]21CCC/C(=C\c2ccccc2)C1=O (stereo partly specified)	Active	–
CC1N[C@@]2(C(=O)c3cccc4cccc2c34)[C@@]2(CCC/C(=C\c3ccc4ccccc4c3)C2=O)[C@H]1c1ccc2ccccc2c1 (stereo partly specified)	Active	–
CC1N[C@@]2(C(=O)c3cccc4cccc2c34)[C@@]2(CCC/C(=C\c3ccc(O)cc3)C2=O)[C@H]1c1ccc(O)cc1 (stereo partly specified)	inactive	–
COc1cc(/C=C2\CCC[C@@]3(C2=O)[C@@H](c2ccc(O)c(OC)c2)C(C)N[C@@]32C(=O)c3cccc4cccc2c34)ccc1O (stereo partly specified)	inactive	–
CN1C[C@H](c2ccccc2)[C@]2(CCC/C(=C\c3ccccc3)C2=O)[C@]12C(=O)Nc1ccc(F)cc12	–	Activity (NRK): Non-Toxic; Activity [1]: Non-Toxic; Activity [2]: Non-Toxic
CN1C[C@H](c2ccccc2)[C@]2(COC/C(=C\c3ccccc3)C2=O)[C@]12C(=O)Nc1ccc(Cl)cc12	–	Activity (NRK): Non-Toxic; Activity [1]: Non-Toxic; Activity [2]: Non-Toxic
NC(=O)CC1N[C@@]2(C(=O)c3cccc4cccc2c34)[C@@]2(CCC/C(=C\c3ccccc3)C2=O)[C@H]1c1ccccc1 (stereo partly specified)	Active	–
NC(=O)CCC1N[C@@]2(C(=O)c3cccc4cccc2c34)[C@@]2(CCC/C(=C\c3ccccc3)C2=O)[C@H]1c1ccccc1 (stereo partly specified)	inactive	–
O=C1c2cccc3cccc(c23)[C@]12NC(Cc1ccc(O)cc1)[C@H](c1ccccc1)[C@]21CCC/C(=C\c2ccccc2)C1=O (stereo partly specified)	inactive	–
CC1N[C@@]2(C(=O)c3cccc4cccc2c34)[C@@]2(CCC/C(=C\c3cccc(O)c3)C2=O)[C@H]1c1cccc(O)c1 (stereo partly specified)	inactive	–
O=C1c2cccc3cccc(c23)[C@]12NC(Cc1ccccc1)[C@H](c1ccccc1)[C@]21CCC/C(=C\c2ccccc2)C1=O (stereo partly specified)	Active	–
CC1N[C@@]2(C(=O)c3cccc4cccc2c34)[C@@]2(CCC/C(=C\c3ccccc3Cl)C2=O)[C@H]1c1ccccc1Cl (stereo partly specified)	Active	–
CCC(C)C1N[C@@]2(C(=O)c3cccc4cccc2c34)[C@@]2(CCC/C(=C\c3ccccc3)C2=O)[C@H]1c1ccccc1 (stereo partly specified)	inactive	–
CC1N[C@@]2(C(=O)c3cccc4cccc2c34)[C@@]2(CCC/C(=C\c3ccc(Cl)c(Cl)c3)C2=O)[C@H]1c1ccc(Cl)c(Cl)c1 (stereo partly specified)	inactive	–
